Experimental data published in ChEMBL document CHEMBL6153136, “Cyclic Peptide Natural Product Inspired Inhibitors of the Free-Living Amoeba Balamuthia mandrillaris” (J Nat Prod, 2025).
≈ marks a conversion by molar mass, not a printed value. Square brackets hold non-standard residues; d marks the D form. Peptide text beside a SMILES is read from it. dOrn = NCCC[C@@H](N)C(=O)O; Orn = NCCC[C@H](N)C(=O)O

Columns and labels:
[1] = system: Balamuthia mandrillaris; test: Anti-amoebic activity against Balamuthia mandrillaris CDC V093 (ATCC 50209) assessed as reduction in amoebae viability measured after 72 hrs by luminescent based CellTiter-Glo assay; assay type: functional, organism-based
[2] = system: A549; test: Cytotoxicity against human A549 cells assessed as reduction in cell viability incubated for 72 hrs by CellTiter-Glo reagent based assay; assay type: functional; settings: A549, 72 h
[3] = Hemolytic activity in human red blood cells assessed as hemolysis at 100 uM incubated for 1 hr by absorbance based assay relative to control; assay type: toxicity, cell-based, Erythrocyte; settings: read-out: Activity
[4] = system: Lactococcus lactis; test: Antibacterial activity against Lactococcus lactis measured after 24 hrs; assay type: functional, organism-based
[5] = system: Balamuthia mandrillaris; test: Anti-amoebic activity against Balamuthia mandrillaris assessed as reduction in amoebae viability measured after 72 hrs by luminescent based CellTiter-Glo assay; assay type: functional, organism-based
[6] = Selectivity index, ratio of IC50 for cytotoxicity against human A549 cells to IC50 for anti-amoebic activity against Balamuthia mandrillaris CDC V093 (ATCC 50209) assessed as reduction in amoebae viability; assay type: toxicity, cell-based; settings: read-out: Ratio IC50
[7] = system: Naegleria fowleri; test: Anti-amoebic activity against Naegleria fowleri assessed as reduction in amoebae viability measured for 72 hrs by luminescent based CellTiter-Glo assay; assay type: functional, organism-based
[8] = system: Acanthamoeba castellanii; test: Anti-amoebic activity against Acanthamoeba castellanii assessed as reduction in amoebae viability measured for 72 hrs by luminescent based CellTiter-Glo assay; assay type: functional, organism-based

CC(C)[C@@H]1NC(=O)[C@@H](CCCCN)NC(=O)[C@H]([C@@H](C)O)NC(=O)[C@@H](CCCN)NC(=O)[C@H](Cc2ccccc2)NC(=O)[C@@H](Cc2ccccc2)NC1=O
IC50 [1]: 3.8 µM | IC50 [2]: > 100 µM | hemolysis at 1 h, 100 µM [3]: < 10%

C[C@@H]1NC(=O)[C@@H](CCCNC(=N)N)NC(=O)[C@H]([C@@H](C)O)NC(=O)[C@@H](CCCN)NC(=O)[C@H](Cc2ccccc2)NC(=O)[C@@H](Cc2ccccc2)NC1=O
IC50 [1]: > 20 µM

C=C(NC(=O)[C@@H](NC(=O)[C@H](Cc1c[nH]cn1)NC(=O)[C@@H](NC(=O)[C@H](CO)NC(=O)[C@@H]1CS[C@@H](C)[C@H]2NC(=O)C(=C)NC(=O)[C@H](NC(=O)[C@H](CCCCN)NC(=O)[C@H](CCSC)NC(=O)[C@H](CC(N)=O)NC(=O)[C@@H]3CS[C@@H](C)[C@@H](NC(=O)[C@H](CCCNN)NC(=O)[C@@H]4CS[C@@H](C)[C@@H](NC(=O)[C@@H]5CSC[C@@H](NC(=O)/C(=C\C)NC(=O)[C@@H](N)[C@@H](C)CC)C(=O)N[C@@H]([C@@H](C)CC)C(=O)NC(=C)C(=O)N[C@@H]([C@@H](C)CC)C(=O)N5)C(=O)N5CCC[C@H]5C(=O)NCC(=O)N4)C(=O)NCC(=O)N[C@@H](C)C(=O)N[C@@H]([C@@H](C)CC)C(=O)N[C@@H](CCSC)C(=O)NCC(=O)N3)[C@H](C)SC[C@H](NC2=O)C(=O)N[C@@H](Cc2c[nH]cn2)C(=O)N1)[C@@H](C)CC)C(C)C)C(=O)N[C@@H](CCCCN)C(=O)O
IC50 [4]: 4.5 µg/mL (≈ 1.34 µM)

CC(C)[C@@H]1NC(=O)[C@@H](CCCNC(=N)N)NC(=O)[C@H]([C@@H](C)O)NC(=O)[C@@H](CCCN)NC(=O)[C@H](Cc2ccccc2)NC(=O)[C@@H](Cc2ccccc2)NC1=O
IC50 [1]: 5 µM | IC50 [5]: 4 µg/mL (≈ 5.23 µM) | IC50 [2]: > 100 µM | selectivity ratio at 72 h [6]: > 20 | hemolysis at 1 h, 100 µM [3]: < 10%

CC(C)[C@@H]1NC(=O)[C@@H](CO)NC(=O)[C@H](CCCNC(=N)N)NC(=O)[C@@H](Cc2ccccc2)NC1=O
IC50 [7]: 6 µg/mL (≈ 12.3 µM)

CC(C)[C@@H]1NC(=O)[C@@H](CCCNC(=N)N)NC(=O)[C@H]([C@@H](C)O)NC(=O)[C@@H](C)NC(=O)[C@H](Cc2ccccc2)NC(=O)[C@@H](Cc2ccccc2)NC1=O
IC50 [1]: 11.9 µM | hemolysis at 1 h, 100 µM [3]: < 10%

CC(C)[C@@H]1NC(=O)[C@@H](CCCNC(=N)N)NC(=O)[C@H]([C@@H](C)O)NC(=O)[C@@H](CCCCN)NC(=O)[C@H](Cc2ccccc2)NC(=O)[C@@H](Cc2ccccc2)NC1=O
IC50 [1]: 4.1 µM | hemolysis at 1 h, 100 µM [3]: < 10%

CC(C)[C@@H]1NC(=O)[C@@H](CCCNC(=N)N)NC(=O)[C@H]([C@@H](C)O)NC(=O)[C@@H](CCCN)NC(=O)[C@H](C)NC(=O)[C@@H](Cc2ccccc2)NC1=O
IC50 [1]: > 20 µM

CC(C)[C@@H]1NC(=O)[C@@H](C)NC(=O)[C@H]([C@@H](C)O)NC(=O)[C@@H](CCCN)NC(=O)[C@H](Cc2ccccc2)NC(=O)[C@@H](Cc2ccccc2)NC1=O
IC50 [1]: > 20 µM

C[C@@H]1NC(=O)[C@@H](CCCNC(=N)N)NC(=O)[C@H]([C@@H](C)O)NC(=O)[C@@H](CCCN)NC(=O)[C@H](Cc2ccccc2)NC(=O)[C@@H](C)NC1=O
IC50 [1]: > 20 µM

CC(C)[C@@H]1NC(=O)[C@@H](CCCCN)NC(=O)[C@H]([C@@H](C)O)NC(=O)[C@@H](CCCCN)NC(=O)[C@H](Cc2ccccc2)NC(=O)[C@@H](Cc2ccccc2)NC1=O
IC50 [1]: 3.9 µM | hemolysis at 1 h, 100 µM [3]: < 10%

CC(C)[C@H](N)C(=O)N[C@H](Cc1ccccc1)C(=O)N[C@@H](Cc1ccccc1)C(=O)N[C@H](CCCN)C(=O)N[C@H](C(=O)N[C@H](CCCNC(=N)N)C(=O)O)[C@@H](C)O (H-V[dF]F[dOrn]T[dR]-OH)
IC50 [1]: > 20 µM | hemolysis at 1 h, 100 µM [3]: < 10%

CC(C)[C@@H]1NC(=O)[C@@H](CCCNC(=N)N)NC(=O)[C@H](C)NC(=O)[C@@H](CCCN)NC(=O)[C@H](Cc2ccccc2)NC(=O)[C@@H](Cc2ccccc2)NC1=O (cyclo(A[dR]V[dF]F[dOrn]))
IC50 [1]: 8.5 µM | IC50 [2]: > 100 µM | hemolysis at 1 h, 100 µM [3]: < 10%

NCCC[C@@H]1NC(=O)[C@@H](CCCN)NC(=O)[C@H](Cc2ccccc2)NC(=O)[C@@H](Cc2ccccc2)NC(=O)[C@H](Cc2ccccc2)NC(=O)[C@@H](CCCN)NC1=O (cyclo(F[dF]F[dOrn][Orn][dOrn]))
IC50 [8]: 5.3 µg/mL (≈ 6.76 µM)
